Test results from patent US9302999B2, “Substituted triazoles as herbicides” (E. I. DU PONT DE NEMOURS AND COMPANY, priority 2012, dated 2016).

Experiments:
Format in all cases: in vivo
[1] = tested on: kochia (Kochia scoparia); test: Test F pre-/postemergence: kochia; conditions: Preemergence
Summary of the method: (§1)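 0–100 visual control scores, taken 14–21 d after application in the greenhouse. Preemergence treatment was made to silt loam soil at sowing. Postemergence sprays hit 1- to 4-leaf plants (2–18 cm) in peat/vermiculite mix. Surfactant-containing non-phytotoxic solvent served as the vehicle.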

[2] = tested on: panicum, fall (fall panicum Panicum dichotomiflorum); test: Test F pre-/postemergence: panicum, fall
Source text: (§2) Seeds of plant species selected from corn (Zea mays), soybean (Glycine max), velvetleaf (Abutilon theophrasti), lambsquarters (Chenopodium album), poinsettia, wild (wild poinsettia, Euphorbia heterophylla), pigweed, palmer (palmer pigweed, Amaranthus palmeri), waterhemp (common waterhemp, Amaranthus rudis), surinam grass (Brachiaria decumbens), crabgrass, Brazil (Brazilian crabgrass, Digitaria horizontalis), panicum, fall (fall panicum Panicum dichotomiflorum), crabgrass, large (large crabgrass, Digitaria sanguinalis), foxtail, giant (giant foxtail, Setaria faberii), foxtail, green (green foxtail Setaria viridis), goosegrass (Eleusine indica), ragweed (common ragweed, Ambrosia elatior), barnyardgrass (Echinochloa crus-galli), sandbur (southern sandbur, Cenchrus echinatus), arrowleaf sida (Sida rhombifolia), ryegrass, Italian (Italian ryegrass, Lolium multiflorum), dayflower, VA (Virginia (VA) dayflower, Commelina virginica), field bindweed (Convolvulus arvensis), cocklebur (common cocklebur, Xanthium strumarium), morningglory (Ipomoea coccinea), nightshade (eastern black nightshade, Solanum ptycanthum), kochia (Kochia scoparia), nutsedge, yellow (yellow nutsedge, Cyperus esculentus), johnsongrass (Sorghum halepense), smartweed (ladysthumb smartweed, Polygonum persicaria), and beggarticks (hairy beggarticks, Bidens pilosa), were planted into a silt loam soil and treated preemergence with test chemicals formulated in a non-phytotoxic solvent mixture which included a surfactant. At the same time, plants selected from these crop and weed species and also pigweed (Amaranthus retroflexus), waterhemp_RES1 (ALS/Triazine resistant common waterhemp, Amaranthus rudis) and waterhemp_RES2 (ALS/HPPD resistant common waterhemp, Amaranthus rudis) were planted in pots containing a planting medium comprising spaghnum peat moss, vermiculite, wetting agent and starter nutrients treated with postemergence applications of some of the test chemicals formulated in the same manner. Plants ranged in height from 2 to 18 cm for postemergence treatments (1- to 4-leaf stage).
(§3) Treated plants and controls were maintained in a greenhouse for 14 to 21 days, after which time all species were compared to controls and visually evaluated. Plant response ratings, summarized in Table E, are based on a scale of 0 to 100 where 0 is no effect and 100 is complete control. A dash (-) response means no test result.

[3] = tested on: pigweed, palmer (palmer pigweed, Amaranthus palmeri); test: Test F pre-/postemergence: pigweed, palmer
Summary of the method: as §1

[4] = tested on: velvetleaf (Abutilon theophrasti); test: Test F pre-/postemergence: velvetleaf; conditions: Preemergence
Source text: as §2, §3

[5] = tested on: ragweed (common ragweed, Ambrosia elatior); test: Test F pre-/postemergence: ragweed; conditions: Preemergence
Summary of the method: as §1

[6] = 4 g ai/ha, scale 0 to 100, 0 no effect, 100 complete control
[7] = 31 g ai/ha, scale 0 to 100 (0 no effect, 100 complete control)
[8] = Postemergence, 4 g ai/ha, scale 0 to 100
[9] = Postemergence, 8 g ai/ha, scale 0 to 100
[10] = Postemergence, 16 g ai/ha, scale 0 to 100
[11] = Postemergence, 31 g ai/ha, scale 0 to 100
[12] = Postemergence, 62 g ai/ha, scale 0 to 100
[13] = Preemergence, 4 g ai/ha, scale 0 to 100, 0 no effect, 100 complete control
[14] = Preemergence, 8 g ai/ha, scale 0 to 100, 0 no effect, 100 complete control
[15] = Preemergence, 16 g ai/ha, scale 0 to 100 (0 no effect, 100 complete control)
[16] = Preemergence, 31 g ai/ha, scale 0 to 100 (0 no effect, 100 complete control)
[17] = 8 g ai/ha, scale 0 to 100, 0 no effect, 100 complete control
[18] = 16 g ai/ha, scale 0 to 100 (0 no effect, 100 complete control)

## Cc1nn(-c2ccc(C(F)(F)F)c(F)c2)nc1Cc1ccnc(C(F)(F)F)c1 [Compound 162]
[1]; [6]
  Plant response rating, Kochia: 30
[1]; [7]
  Plant response rating, Kochia: 70
[1]; 62 g ai/ha, scale 0 to 100
  Plant response rating, Kochia: 98
[2]; [8]
  Plant response rating, Panicum, Fall: 15
[2]; [9]
  Plant response rating, Panicum, Fall: 20
[2]; [10]
  Plant response rating, Panicum, Fall: 20
[2]; [11]
  Plant response rating, Panicum, Fall: 25
[2]; [12]
  Plant response rating, Panicum, Fall: 30
[2]; [13]
  Plant response rating, Panicum, Fall: 0
[2]; [14]
  Plant response rating, Panicum, Fall: 0
[2]; [15]
  Plant response rating, Panicum, Fall: 100
[2]; [16]
  Plant response rating, Panicum, Fall: 100
[3]; [8]
  Plant response rating, Pigweed, Palmer: 70
[3]; [9]
  Plant response rating, Pigweed, Palmer: 70
[3]; [10]
  Plant response rating, Pigweed, Palmer: 80
[3]; [11]
  Plant response rating, Pigweed, Palmer: 90
[3]; [12]
  Plant response rating, Pigweed, Palmer: 90
[3]; [13]
  Plant response rating, Pigweed, Palmer: 0
[3]; [14]
  Plant response rating, Pigweed, Palmer: 25
[3]; [15]
  Plant response rating, Pigweed, Palmer: 98
[3]; [16]
  Plant response rating, Pigweed, Palmer: 100
[4]; [6]
  Plant response rating, Velvetleaf: 0
[4]; [17]
  Plant response rating, Velvetleaf: 0
[4]; [18]
  Plant response rating, Velvetleaf: 0
[4]; [7]
  Plant response rating, Velvetleaf: 0
[5]; [6]
  Plant response rating, Ragweed: 0
[5]; [17]
  Plant response rating, Ragweed: 0
[5]; [18]
  Plant response rating, Ragweed: 0
[5]; [7]
  Plant response rating, Ragweed: 70
